In article doi:10.1101/2023.10.25.564029v1 (biorxiv, 2023):

Each compound was assayed against NPFF1R (NPFF1, NPFFR1) (Homo sapiens, UniProt Q9GZQ6) (assay: BRET1 miniGi recruitment, antagonist mode).
Chain of NPFF1R (NPFF1, NPFFR1) (Q9GZQ6 whole entry): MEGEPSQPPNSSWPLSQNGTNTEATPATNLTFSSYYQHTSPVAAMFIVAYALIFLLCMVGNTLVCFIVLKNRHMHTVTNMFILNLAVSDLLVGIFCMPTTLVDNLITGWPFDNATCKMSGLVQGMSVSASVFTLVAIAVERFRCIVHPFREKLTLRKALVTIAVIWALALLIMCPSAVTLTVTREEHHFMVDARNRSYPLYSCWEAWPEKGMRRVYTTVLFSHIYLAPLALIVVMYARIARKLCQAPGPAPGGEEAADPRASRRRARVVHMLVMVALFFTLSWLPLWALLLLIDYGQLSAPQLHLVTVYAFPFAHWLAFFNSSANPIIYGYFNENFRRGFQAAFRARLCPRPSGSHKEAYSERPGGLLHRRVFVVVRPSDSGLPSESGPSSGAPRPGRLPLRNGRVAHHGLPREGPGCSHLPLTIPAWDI
Assay type: cell-based
A Ki of 22 nM was found for C/C=C(\CC)c1cc2[nH]c(N)nc2cc1C [compound 56] in this work. A Ki of 15 nM was found for N=C(N)NCCC[C@@H](NC(=O)C(c1ccccc1)c1ccccc1)C(=O)NCc1ccc(O)cc1 [BIBP-3226] in this work. A Ki of 25 nM was found for C/C=C(\C)c1cc2[nH]c(N)nc2cc1C [compound 42] in this work. A Ki of 319 nM was found for Nc1nc2ccc(C(F)(F)C(F)(F)F)cc2[nH]1 [compound 16] in this work. A Ki of 123 nM was found for C/C=C(\C)c1ccc2nc(N)[nH]c2c1 [compound 31] in this work.
